# Results: the METLIN SMRT retention time set (Domingo-Almenara et al. 2019)
# Assay: gradient 5% acetonitrile 3 min, to 50% in 2 min, to 85% in 15 min, held 3 min, 100 µL/min
# Settings: column: Zorbax Extend-C18 2.1 x 50 mm; eluents: water / acetonitrile, 0.1% formic acid
# Outline: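 The system's dead and dwell volumes were 40 μL and 900 μL, with a Zorbax Extend-C18 column (2.1 × 50 mm, 1.8 μm) run at 100 μL/min in water and acetonitrile containing 0.1% formic acid each. Pure standards were analyzed in mixtures of ~100 molecules by HPLC–quadrupole time-of-flight mass spectrometry in positive and negative ionization mode. Retention time was assigned from computationally picked, manually inspected adduct peaks.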
row,RP-LC retention time [s],Compound
1,784,O=C(Nc1cccc(F)c1)N1CCN(Cc2nc3ccc(Cl)cc3o2)CC1
2,1100,COc1ccc(-c2ncc3c(n2)CCN(S(=O)(=O)c2cccc(Cl)c2)C3)cc1
3,690,O=C(c1ccco1)N1CCCC(c2nnc(-c3cccs3)o2)C1 (centres undefined)
4,698,O=C(Cc1nnc(-c2cnccn2)o1)NCc1ccc(Cl)cc1
5,583,O=C(Cc1cccs1)NCCN1CCN(c2ccc(Cl)cc2)CC1
6,574,O=C(NCc1ccc(F)cc1)N1CCc2nc[nH]c2C1
7,940,CCOc1ccc(-c2csc(C)n2)cc1S(=O)(=O)Nc1ccc(OC)cc1
8,1010,Cc1ccc(NC(=O)N2CCCC2c2nc(-c3cccc(F)c3)no2)cc1 (centres undefined)
9,851,CN1C(=O)C2(CCN(C(=O)c3ccc(Cl)cc3)C2)c2ccccc21 (centres undefined)
10,912,CCCn1cc(S(=O)(=O)NCc2ccc(F)cc2)c2cccnc21
11,722,Cn1ccc(C(=O)N2CC(n3cc(COc4ccc(F)cc4)nn3)C2)n1
12,725,Cc1ccccc1N1CCN(C(=O)C2CC(=O)N(CCc3ccccc3)C2)CC1 (centres undefined)
13,1080,Cc1ccc(Oc2nccn3c(=O)n(CC(=O)NC(C)CCc4ccccc4)nc23)cc1 (centres undefined)
14,756,COc1cccc(-c2[nH]ncc2CNS(=O)(=O)c2cc(OC)ccc2OC)c1
15,699,CCc1ccc(Nc2c(C(=O)N3CCC(C)CC3)cnc3nc(C)ccc23)cc1
16,705,Cc1cccc(CNC(=O)c2cn3ccncc3n2)c1
17,776,O=C(COc1ccc(Cl)cc1)N1CCC2(C1)C(=O)Nc1ccccc12 (centres undefined)
18,629,Cc1ccc2[nH]c(=O)c(CCC(=O)NCCCN3CCc4ccccc4C3)cc2c1
19,715,COC(=O)c1ccc(Cl)cc1NC(=O)N1CCCn2nc(-c3ccncc3)cc2C1
20,1110,O=C(Nc1ccc(F)c(F)c1)C1CCN(c2nccnc2Sc2ccccc2)CC1
21,960,CCCn1cc(S(=O)(=O)Nc2cc(C)ccc2C)c2cccnc21
22,642,C[C@@H]1CCNC(=O)c2cc3ccc(C(=O)Nc4nc5ccccc5n4CCCN(C)C)cc3n21
23,753,CC(C)n1cnc(S(=O)(=O)N2CCC(C(=O)Nc3cccc(-c4ccno4)c3)CC2)c1
24,591,CC(C)CN(Cc1cccnc1)C1CN(S(=O)(=O)c2cn(C)cn2)C1
25,546,CCOc1cccc(CN2C[C@@H](CO)[C@H](c3ccncc3)C2)c1
26,1460,COc1ccc(OC(=O)c2cc3c(C)nn(-c4cccc(F)c4)c3s2)cc1
27,951,CSc1cccc(NC(=O)N2CCCC(C)(C(=O)NCc3ccccc3)C2)c1 (centres undefined)
28,1170,COc1cccc(-c2csc(-c3nnn(-c4cccc(Cl)c4)c3N)n2)c1
29,1210,CCc1ccc(-n2ncc3c(=O)n(Cc4nc(-c5cccc(C)c5)no4)cnc32)cc1

# The remaining lines, values behind:
row,Compound,RP-LC retention time [s]
1,CCOC(=O)c1c(C)oc2ncnc(NCCN(C)Cc3ccccc3)c12,688
2,Cc1cccc(N2CCN(Cc3nc(-c4ccc(N5CCCCC5)nc4)no3)CC2)c1,965
3,CCCCN(CC)Cc1ccc(CNC(=O)C2CCCN(c3nnc(N4CCCC4=O)s3)C2)o1 (centres undefined),611
4,Cc1ccc(NC(=O)C(C)C2CCN(C(=O)Nc3ccc(Cl)cc3)CC2)cc1 (centres undefined),963
5,CCN(CC)Cc1ccc2c(c1)CN(C(=O)NC1CCCC1)CCO2,558
6,CCn1c(C)c(CCC(=O)NCC2CCCO2)c(=O)n2nc(-c3ccccc3)nc12 (centres undefined),691
7,Cc1c(N2CCCC2)cc2c(c1NC(=O)c1ccccc1Cl)C(C)(C)CC2(C)C,874
8,CC(C)N1CCN(C(=O)c2n[nH]c3c2CCCC3)CC1,558
9,Cc1cc2c(c(=O)n(-c3ccccc3)c(=O)n2CC(=O)Nc2cccc(C(F)(F)F)c2)n1C,904
10,COc1ccc(-c2ncc3c(n2)CCN(S(=O)(=O)c2ccc(OC)cc2)C3)cc1,991
11,Cc1ccsc1C(=O)NCc1ccc2c(c1)ncn2C(C)C,616
12,CCCNC(=O)c1cnn2c3c(cnc12)CCCCCC3,976
13,COc1ccccc1NC(=O)Cn1ncc2c(c1=O)N(CC1CC1)C(=O)CS2,794
14,O=c1ccc(-c2ccc3c(c2)OCO3)nn1CCc1nc(-c2ccccc2Br)no1,936
15,CC1CCCN(c2ccn3c(=O)n(CC(=O)NCc4ccc(F)cc4)nc3n2)C1 (centres undefined),804
16,O=C1CN(S(=O)(=O)c2ccc(F)c(Cl)c2)CC2(CCCCC2)N1C1CCCC1,1240
17,COc1ccccc1/C=C/c1nc(C#N)c(NCCCN(C)C)o1,658
18,CCc1noc(NC(C)=O)c1-c1ccc(C)c(S(=O)(=O)Nc2cc(OC)cc(OC)c2)c1,854
19,O=C1CCCc2cc(S(=O)(=O)N3CCC(C(=O)NC4CCCC4)CC3)ccc2N1,761
20,COC(=O)C1=CN(C2CC2)c2cc(N3CCN(c4ccccn4)CC3)c(F)cc2S1(=O)=O,637

row,Compound,RP-LC retention time [s]
1,O=C(CCC1CCCC1)Nc1nc(-c2ccc(F)cc2)cs1,1210
2,CC(C)NC(=O)CN1CCN(C(=O)Nc2ccc(Cl)cc2)CC1=O,669
3,O=C(O)CCCCC1SCC2NC(=O)NC21 (centres undefined),634
4,O=C(CCn1nnc2cc(-c3noc(Cc4ccc(F)cc4)n3)ccc21)N1CCCC1,860
5,COc1ccccc1N1CCN(Cc2nc3nc(C)cc(N4CCCC4)n3n2)CC1,606
6,CN1CCCn2nc(C3CCN(C(=O)Nc4cccc(C#N)c4)CC3)cc2C1=O,656
7,Cc1ccc(C(=O)CC2(O)C(=O)Nc3ccc(F)cc32)cc1C (centres undefined),776
8,O=C(NCC(=O)N1CCN(c2ccccn2)CC1)c1cc2ccccc2[nH]1,600
9,Cc1ccc(C(C)NC(=O)C2CCCN(c3nc4c(s3)c(C)nn4-c3ccc(F)cc3)C2)cc1 (centres undefined),1230
10,CCN1C(=O)C(CC(=O)N2CCCC2)Sc2ncccc21 (centres undefined),654
11,CCOC(=O)c1noc2nc(C)nc(N3CCN(c4ccccc4F)CC3)c12,1070
12,CCCC(=O)N1C[C@@H]2CCCN3CCC[C@@H]([C@H]23)[C@H]1CCCC(=O)NCC1CC1,587
13,O=S(=O)(c1cc(-c2cc(C(F)(F)F)on2)cs1)N1CCN(C2CCCCC2)CC1,775
14,CC1=C(c2ccc(C(C)C)cc2)S(=O)(=O)N=C1N1CCC(C(=O)NCC2CCCO2)CC1 (centres undefined),820
15,O=C(Cn1cccc1-c1nnc(C2CC2)o1)N1CCN(c2ccccc2)CC1,821
16,CCc1ccc(-n2nnc3c(=O)n(Cc4nc(-c5ccccc5Cl)no4)cnc32)cc1,1120
17,CC(NC(=O)c1cccs1)C(=O)Nc1nc2ccccc2[nH]1 (centres undefined),612
18,COc1ccccc1N1CCN(c2cc(SCC(=O)Nc3ccc4c(c3)OCO4)ncn2)CC1,900
19,CN1CCCC1c1nc(C2CN(C(=O)Cn3c(=O)oc4ccccc43)C2)no1 (centres undefined),582
20,COc1cc(Cl)c(C)cc1Nc1c(C(=O)N2CCC(C)CC2)cnc2nc(C)ccc12,706

row,Compound,RP-LC retention time [s]
1,CS(=O)(=O)c1ccc(-c2cnc(N)c(C(=O)Nc3ccccc3)n2)cc1,937
2,CC1Cc2ccccc2N1C(=O)c1ccc(=O)n(CCC(=O)NC2CCCCCC2)n1 (centres undefined),861
3,CC(NC(=O)c1cn(-c2ncccc2-c2nc(-c3ccccc3)no2)cn1)c1ccccc1 (centres undefined),966
4,NS(=O)(=O)c1ccc(CCNCc2ccc(-c3ccccc3F)o2)cc1,643
5,CCNC(=O)c1[nH]c2ccc(F)cc2c1N1CCCC1=O,676
6,O=C(Cc1ccccc1F)N1CCN(c2cc(-c3cccs3)[nH]n2)CC1,794
7,O=C(O)c1ccc(S(=O)(=O)N2CCc3ccccc3C2)cc1,773
8,O=C(Nc1nc(-c2ccccc2)c(-c2ccccc2)o1)NC1CCCCC1,1320
9,CCC(C)NC(=O)C1COC2(CCN(C(=O)CC(C)(C)C)CC2)N1C(=O)c1ccc(OC)cc1 (centres undefined),760
10,CCS(=O)(=O)Nc1ccc2nc(N3CCN(c4cc(C)ccc4C)CC3)cc(C(=O)O)c2c1,607
11,Cc1cc(Cl)ccc1N1C(=O)CN(S(C)(=O)=O)CC1(C)C(=O)NCc1ccc(F)cc1 (centres undefined),888
12,COc1ccc(-c2nc(Cn3ccn4nc(-c5ccc6c(c5)OCO6)cc4c3=O)c(C)o2)cc1,1100
13,CCOc1ccccc1NC(=O)C1CCN(c2cncnc2N2CCOCC2)CC1,651
14,COc1ccc(NC(=O)Cn2c(C)cc(-c3nnc(C4CC4)o3)c2C)cc1Cl,856
15,O=c1c2sccc2n(Cc2nc(-c3ccc(F)cc3)no2)c(=O)n1Cc1ccccc1,1030
16,O=C(C1CCN(S(=O)(=O)c2cc(-c3noc(C4CC4)n3)cs2)CC1)N1CCCCC1,931
17,CCC(=O)NCC12CCC=C1N(C)C(=O)CC2 (centres undefined),616
18,CCCn1cc(C(=O)NC(C)c2ccc(OC)cc2)c2cccnc21 (centres undefined),869
19,CCNc1ncnc2sc3c(c12)CCN(C(=O)CC)C3,617
20,Clc1cccc(-c2ccc(CNCc3ccc4c(c3)OCO4)o2)c1,741
